Source: US20120064008A1, “COMPOSITIONS FOR THE TREATMENT OF METASTATIC CANCER AND METHODS OF USE THEREOF” (priority 2009, published 2012)
Read-outs that look alike come from different tables or passages of the source.

Legend:
[1] = tested on: PC3M human prostate cancer cells; test: Cyquant cell viability assay, PC3M; type: cell-based; conditions: for EC50: Homo sapiens, PC-3M, read-out: ED50 PC3M DMSO
Method: (§1) PC3M and PC3MLN4 cells were treated with vehicle, fenbendazole in DMSO, and fenbendazole in DMSO/NMP/TWEEN®-80/CrEL in varying doses for 72 hours. Cell viability assays using Cyquant reagent (Invitrogen, C7026) were performed as described in the literature. […] cells were seeded in 96 well plates overnight, before treated with either vehicle or benzimidazole solubilized in DMSO alone or in DMSO (12.5%)/NMP ([…])/TWEEN®-80 (25%)/Cr-EL (25%) for 72 hours. Cells were harvested by removing the media, washing once with phosphate buffered saline (PBS) and freezing at −80° C. for overnight. After thawing to room temperature, Cyquant reagent were prepared and added to the wells and the fluorescence intensity were measured with a spectrometer at 485 nm. Percent control was calculated by dividing the reading from drug-treated cells with the reading from vehicle-treated cells.
(§2) ED50 values were calculated from dose-effect analysis performed with Compusyn using data from the Cyquant cell viability assays.
(§3) ED50 values were calculated from dose-effect analysis performed with Compusyn using data from the Cyquant cell viability assays. All benzimidazoles drugs were solubilized in the combination carrier.

[2] = tested on: PC3MLN4 human prostate cancer cells; test: Cyquant cell viability assay, PC3MLN4; conditions: for EC50: Homo sapiens, 72 h, read-out: ED50 PC3MLN4 DMSO
Method: as §1, §2, §3

AT6.1 cells = test: Normalized mitotic index (histone H3 phospho-Serine-28), AT6.1; type: cell-based; conditions: Rattus norvegicus, normalized against vehicle-treated cells
Text: The mitotic index for each agent was normalized against those obtained from vehicle-treated cells, and compared with the activity of paclitaxel, a known inducer of mitotic arrest.

PC3MLN4 cells = test: Annexin V/7-AAD apoptosis by flow cytometry, PC3MLN4; conditions: for apoptotic cells in PC3MLN4: 1 μM, combination carrier
Method: (§4) Annexin V/7-amino-actinomycin D labeling was done according to the manufacturer's instructions (BD Pharmingen, 559763) and samples were analyzed by flow cytometry. Briefly, the cells were treated for 72 hours with either vehicle or 1 μM benzimidazole drugs, solubilized in the combination carrier. Cells were trypsinized and washed with PBS before resuspending in assay binding buffer. Annexin V and 7-amino-actinomycin labeling was performed at room temperature for 15 minutes before analysis by flow cytometry (BD FACScan). Cells positively stained for annexin V in the lower right quadrant and upper right quadrant indicate early and late apoptosis, respectively.
All benzimidazole drugs were solubilized in the combination carrier. After 72 hours, the cells were analyzed by annexin V/7-AAD staining. Cells positively stained for annexin V in the lower right quadrant and upper right quadrant indicate early and late apoptosis, respectively.

PC3M cells = test: Annexin V/7-AAD apoptosis by flow cytometry, PC3M; type: cell-based, human; conditions: 1 μM, 72 hours, combination carrier
Method: All benzimidazole drugs were solubilized in the combination carrier. After 72 hours, the cells were analyzed by annexin V/7-AAD staining.
as §4

[3] = Combination with paclitaxel, Cyquant cell growth inhibition, CompuSyn median-dose effect analysis; type: cell-based; conditions: alone or in combination
Method: Cell growth inhibition assays were performed using Cyquant reagent as described above. Drug interactions were quantitated by median-dose effect analysis and combination index values as well as dose reduction index were derived using CompuSyn software (ComboSyn, Inc.), as described previously in the literature. CI values of <1, =1, and >1 indicate synergism, additivity and antagonism between the drugs, respectively.
All benzimidazole drugs were prepared using the combination carrier and diluted with culture medium prior to treatment.

[4] = tested on: PC3 human prostate cancer cells; test: Cyquant cell viability assay, PC3; type: cell-based; conditions: read-out: ED50 PC3
Method: (§5) The cytotoxic effects of paclitaxel, fenbendazole, and albendazole were compared in paclitaxel-resistant PC3-TR and DU145-TR prostate cancer cells with their paclitaxel-sensitive counterparts, PC3 and DU145 cells. Cells were treated for 72 hours with vehicle, paclitaxel, fenbendazole or albendazole in various doses. Cell viability was measured using Cyquant assay, and percent control was calculated by dividing the fluorescent reading from drug-treated cells with those from vehicle-treated cells, indicating percentage of cell survival.

[5] = tested on: paclitaxel-resistant PC3-TR prostate cancer cells; test: Cyquant cell viability assay, PC3-TR; type: cell-based, human; conditions: Homo sapiens, read-out: ED50 PC3-TR
Method: as §5

[6] = tested on: DU145 human prostate cancer cells; test: Cyquant cell viability assay, DU145; type: cell-based; conditions: read-out: ED50 DU145
Method: as §5

[7] = tested on: paclitaxel-resistant DU145-TR prostate cancer cells; test: Cyquant cell viability assay, DU145-TR; type: cell-based, human; conditions: Homo sapiens, read-out: ED50 DU145-TR
Method: as §5

[8] = tested on: MES-SA human uterine sarcoma cells; test: Cell viability, MES-SA; type: cell-based; conditions: read-out: ED50 MES-SA
Text: (§6) Benzimidazoles retain their anti-tumor activity in these paclitaxel-resistant cells, with higher potency when compared to the parental cells (see Table 4). Cells resistant to microtubule-stabilizing drugs such as the taxanes are more susceptible to microtubule-disrupting agents. To confirm this, human uterine sarcoma MES-SA/Dx5 cells, which are cross-resistant to various chemotherapeutic agents, including the microtubule-disrupting agents vincristine and colchicine, were used.

[9] = tested on: multidrug resistant MES-SA/Dx5 human uterine sarcoma cells; test: Cell viability, MES-SA/Dx5; type: cell-based; conditions: read-out: ED50 MES-SA/Dx5
Text: as §6

PC3 cells [10] = test: Normalized mitotic index, PC3; type: cell-based, human; conditions: 1 μM
PC3-TR cells [11] = test: Normalized mitotic index, PC3-TR; type: cell-based, human; conditions: 1 μM
DU145 cells [12] = test: Normalized mitotic index, DU145; type: cell-based, human; conditions: 1 μM
DU145-TR cells = test: Normalized mitotic index, DU145-TR; type: cell-based, human; conditions: 1 μM
PC3 cells [13] = test: % apoptotic cells, PC3; type: cell-based, human; conditions: 1 μM
PC3-TR cells [14] = test: % apoptotic cells, PC3-TR; type: cell-based, human; conditions: 1 μM
DU145 cells [15] = test: % apoptotic cells, DU145; type: cell-based, human; conditions: 1 μM

Row | SMILES | EC50 [2] | apoptotic cells in PC3MLN4 (PC3MLN4 cells; 72 hours) | apoptotic cells in PC3M (PC3M cells) | EC50 [8] | EC50 [9] | Normalized mitotic index (6 hours) PC3 (PC3 cells [10]) | Normalized mitotic index (6 hours) PC3-TR (PC3-TR cells [11]) | Normalized mitotic index (6 hours) DU145 (DU145 cells [12]) | Normalized mitotic index (6 hours) DU145-TR (DU145-TR cells) | % Apoptotic cells (72 hours) PC3 (PC3 cells [13]) | % Apoptotic cells (72 hours) PC3-TR (PC3-TR cells [14]) | % Apoptotic cells (72 hours) DU145 (DU145 cells [15]) | other results
1 | CCCSc1ccc2nc(NC(=O)OC)[nH]c2c1 [Albendazole, albendazole] | 4680 nM | 29.7% | 22% | 1480 nM | 840 nM | 1.27 | 1.56 | 1.93 | 1.13 | 13.2% | 25.8% | 27% | EC50 ([1]; 72 h): 4840 nM; cytotoxicity in the combination carrier compared to DMSO alone ([2]; PC3MLN4 cells, 72 hours): greater cytotoxicity; cytotoxicity in highly metastatic cells relative to PC-3M ([2]; PC-3MLN4 (b184 also AT6.1) relative to PC-3M): greater cytotoxicity; fold induction at 1 µM (AT6.1 cells; read-out: Normalized mitotic index AT6.1, at 1 μM): > 1; cytotoxic activity via apoptosis in highly metastatic prostate cancer cells (PC3MLN4 cells; 72 hours, annexin V): induction of apoptosis; Dose ABZ ([3]; Fa 0.60): 5.249 µM; EC50 ([4]; 72 h): 4860 nM; EC50 ([5]; 72 h): 800 nM; EC50 ([6]; DU-145, 72 h): 2410 nM; EC50 ([7]; 72 h): 1080 nM
2 | COC(=O)Nc1nc2ccc(Sc3ccccc3)cc2[nH]1 [Fenbendazole, fenbendazole] | 1930 nM | 31.4% | 22.8% | 3040 nM | 1130 nM | 1.26 | 1.48 | 1.47 | 1.18 | 16.1% | 34.4% | 26% | EC50 ([1]; solubilized in DMSO alone, 72 hours): 5400 nM; reduction in ED50, DNTC compared to DMSO, PC-3M ([1]; solubilized in DNTC vs DMSO): ~2 fold; cytotoxicity in the combination carrier compared to DMSO alone [2]: greater cytotoxicity; reduction in ED50, DNTC compared to DMSO, PC-3MLN4 ([2]; solubilized in DNTC vs DMSO): ~2 fold; fold induction at 1 µM (AT6.1 cells; at 1 μM, read-out: Normalized mitotic index AT6.1): > 1; cytotoxic activity via apoptosis in highly metastatic prostate cancer cells (PC3MLN4 cells): induction of apoptosis; EC50 ([3]; Fa 0.50, read-out: Dose FBZ): 6210 nM; EC50 ([4]; 72 hours): 1570 nM; EC50 ([5]; 72 hours, paclitaxel-resistant): 320 nM; EC50 ([6]; DU-145, 72 hours): 10700 nM; EC50 ([7]; 72 hours, paclitaxel-resistant): 4210 nM
